What all share (assay type): functional, cell-based
Assay [1] in a line: Antiproliferative activity against human MDA468 cells by MTT assay. The conditions noted are these: MDA-MB-468. For orientation: Formazan colour is commonly taken as a measure of viable cells.
For assay [2], the system named is MGC-803. Nature of the assay: Antiproliferative activity against human MGC803 cells by MTT assay.
For assay [3], the system named is HT-29. The assay is described as follows: Antiproliferative activity against human HT-29 cells by MTT assay.
Assay [4] in a line: Antiproliferative activity against human COLO205 cells by MTT assay. The conditions noted are these: COLO 205.

pIC50: −log10 of the molar value.

This is an account of results in ChEMBL document CHEMBL3351442, “Synthesis and antiproliferative evaluation of 2-hydroxylated (E)-stilbenes” (Bioorg Med Chem Lett, 2014).

The term pIC50 denotes the negative decadic logarithm of the IC50, by convention in mol/L. For `COc1cccc(/C=C\c2cc(OC)c(OC)c(OC)c2)c1O`, the results for the pIC50 in assay [1] and in assay [2] were 5.59 and 5.96, respectively.

With `COc1cc(/C=C/c2ccccc2O)cc(OC)c1`, the pIC50 is 4.90 in assay [1], 4.58 in assay [3] and 5.20 in assay [2].

With `Oc1ccccc1/C=C/c1ccccc1`, in assay [1], the negative logarithm of the IC50 (pIC50) is 4.71.

Consider `Cc1ccc(/C=C/c2ccccc2O)cc1`, for which the pIC50 in assay [1] was 4.66; in assay [3], 4.64.

Regarding `Oc1ccccc1/C=C/c1ccc(Br)cc1`, the results for the negative logarithm of the IC50 (pIC50) in assay [4], in assay [1] and in assay [3] were 4.68, 5.13 and 4.84, respectively.

With `Oc1ccc(/C=C/c2ccccc2O)cc1`, in assay [3], the negative-log IC50 (pIC50) was 4.47.

In assay [2], `N#Cc1ccc(/C=C/c2ccccc2O)cc1` had a pIC50 of 5.51.

Compound `Oc1cc(O)cc(/C=C/c2ccccc2O)c1` showed a negative logarithm of the IC50 (pIC50) in assay [3] of 4.58.

`COc1cccc(/C=C/c2ccc(O)cc2)c1O`: the negative-log IC50 (pIC50) in assay [1] is 5.16.

Compound `COc1ccc(/C=C/c2cccc(OC)c2O)cc1` had a pIC50 in assay [4] of 4.69.

`COc1ccc(/C=C/c2cccc(OC)c2O)c(OC)c1` showed a pIC50 in assay [1] of 5.29.

As for `Oc1ccc(/C=C/c2cc(Br)ccc2O)cc1`, the values for the negative-log IC50 (pIC50) in assay [1] and in assay [3] were 5.46 and 4.57, respectively.

Consider `COc1ccc(/C=C/c2cc(Br)ccc2O)c(OC)c1`, for which the pIC50 in assay [1] is 5.43; in assay [3] it was 5.00; in assay [2], 5.46.

As to `Cc1cc(C)cc(/C=C/c2cc(Br)ccc2O)c1`, the pIC50 was 5.14 in assay [1], 4.88 in assay [3] and 5.30 in assay [2].

Consider `COc1cc(/C=C/c2cc(Br)ccc2O)cc(OC)c1`, for which the pIC50 was 4.79 in assay [4], 5.21 in assay [1], 5.02 in assay [3] and 5.48 in assay [2].

For `COc1cc(/C=C/c2cc(Br)ccc2O)cc(OC)c1OC`, the pIC50 is 4.85 in assay [1], 4.73 in assay [3] and 5.35 in assay [2].

`COc1cc(/C=C/c2cc([N+](=O)[O-])ccc2O)cc(OC)c1`: the pIC50 was 4.90 in assay [3] and 4.97 in assay [2].

For the compound `COc1cc(/C=C/c2cc([N+](=O)[O-])ccc2O)cc(OC)c1OC`, the pIC50 in assay [2] was 4.83.

For `COc1ccc(/C=C/c2cc(OC)c(OC)c(OC)c2)c(O)c1`, the pIC50 was 5.28 in assay [4], 5.28 in assay [1], 5.01 in assay [3] and 7.46 in assay [2].

`Oc1ccc(/C=C/c2cc(O)cc(O)c2)cc1` [RESVERATROL]: the negative logarithm of the IC50 (pIC50) in assay [4] was 4.63; in assay [1], 4.34; in assay [3], 4.06; in assay [2], 4.38.
